The text below walks through data of patent US7101692B2 (priority 1999, dated 2006).

The test system of assay [1] is sorting reaction (sortase cleavage of Seb-Spa490-524 P2 precursor at the LPXTG motif). The class given is cell-based, S. aureus OS2.
Assay [2] has as its target T1, SrtADN (Staphylococcus aureus, UniProt Q2FV99). In kind it is biochemical, S. aureus. The following applies: 5 mM MTSET or 5 mM pHMB, 5 μM SrtADN.
The subject of assay [3] is S. aureus OS2 (pSeb-Spa490-524). In kind it is cell-based.
The target of another assay is sortase (Staphylococcus aureus, UniProt Q2FV99). In kind it is biochemical. The following applies: pre-incubation of staphylococcal extracts with 5 mM MTSET.
In assay [4] the test system is cell wall sorting reaction (surface protein anchoring). The class given is cell-based, S. aureus OS2.
The next assay has as its system cell wall synthesis. In kind it is cell-based, staphylococci (S. aureus OS2).
For assay [5], the system named is wild-type staphylococci, strains SM317 and SM329. The class given is cell-based, S. aureus.
For assay [6], the target named is T1, SrtADN. In kind it is biochemical, S. aureus. The note with it: absence of peptidoglycan substrate. From the text:
The N-terminal membrane anchor segment of […] (residues 2-25) were replaced with a six-histidine tag ([…]). In the absence of the peptidoglycan substrate, SrtA DN catalyzes peptide bond hydrolysis and cleaves LPETG peptide, presumably between the threonine and the glycine (Ton-That et al., 2000).

The test system of the next assay is staphylococci. In kind it is cell-based, S. aureus OS2.

Entries after “also recorded” stand apart in the source; their conditions may differ.

T1 sequence (Q2FV99 26-206): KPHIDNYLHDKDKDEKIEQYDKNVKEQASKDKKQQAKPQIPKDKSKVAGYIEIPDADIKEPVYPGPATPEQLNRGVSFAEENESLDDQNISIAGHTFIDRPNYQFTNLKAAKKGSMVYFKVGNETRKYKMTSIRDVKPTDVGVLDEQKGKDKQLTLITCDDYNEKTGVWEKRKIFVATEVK
sortase, sequence (Q2FV99 whole entry): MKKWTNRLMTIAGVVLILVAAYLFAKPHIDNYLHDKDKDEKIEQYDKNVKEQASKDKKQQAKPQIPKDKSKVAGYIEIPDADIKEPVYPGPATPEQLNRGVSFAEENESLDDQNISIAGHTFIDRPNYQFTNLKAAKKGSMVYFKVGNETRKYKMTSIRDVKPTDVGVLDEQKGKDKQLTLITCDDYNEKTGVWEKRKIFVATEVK

For the compound `O[C@H](CS)[C@H](O)CS` (racemic) [dithiothreitol (DTT), dithiothreitol], in assay [1], the “interference with cleavage of sorting signals at the LPXTG motif / cell wall sorting (in words)” value is on record as “did not affect the sorting reaction”.

In the case of `OCCS` [2-mercaptoethanol], in assay [1], the “interference with cleavage of sorting signals at the LPXTG motif / cell wall sorting (in words)” value is given as “did not affect the sorting reaction”.

On to `CS(=O)(=O)SCCS(=O)(=O)O` [(2-sulfonatoethyl)methanethiosulfonate], for which, in assay [1], the “interference with cleavage of sorting signals at the LPXTG motif / cell wall sorting (in words)” value is reported as “interfered with sorting albeit not as effectively as MTSET”.

With `CCN1C(=O)C=CC1=O` [N-ethylmaleimide], the “interference with cleavage of sorting signals at the LPXTG motif / cell wall sorting (in words)” value in assay [1] was “did not”.

For the compound `C[N+](C)(C)CCSS(C)(=O)=O` [[2-(trimethylammonium)ethyl]methanethiosulfonate], the “inhibition of LPXTG peptide cleavage” value against SrtADN [2] is “inhibited; also recorded: abolished all enzymatic activity”. Besides, in assay [3], the “incorporation of [35S]methionine by staphylococci” value is listed as “prevented incorporation” and the “protein export (Sec-dependent export of P1 precursor)” value is “remained unaltered”. For the same compound, the “interference with cleavage of sorting signals at the LPXTG motif / cell wall sorting (in words)” value in assay [1] is reported as “interfered with the cleavage of sorting signals at the LPXTG motif”. Further, the “inhibition of LPXTG peptide cleavage” value against sortase is reported as “inhibited”.

Take `NC(=O)CI` [iodoacetamide]: in [1], the “interference with cleavage of sorting signals at the LPXTG motif / cell wall sorting (in words)” value is “did not”.

Regarding `O=C(O)CI` [iodoacetic acid], in assay [1], the “interference with cleavage of sorting signals at the LPXTG motif / cell wall sorting (in words)” value was “did not”.

On to `CN[C@H](CC(C)C)C(=O)N[C@H]1C(=O)N[C@@H](CC(N)=O)C(=O)N[C@H]2C(=O)N[C@H]3C(=O)N[C@H](C(=O)N[C@H](C(=O)O)c4cc(O)cc(O)c4-c4cc3ccc4O)[C@H](O)c3ccc(c(Cl)c3)Oc3cc2cc(c3O[C@@H]2O[C@H](CO)[C@@H](O)[C@H](O)[C@H]2O[C@H]2C[C@](C)(N)[C@H](O)[C@H](C)O2)Oc2ccc(cc2Cl)[C@H]1O` [vancomycin], for which, in assay [4], the “[P2]/[M]” value is given as 0.47 ± 0.04 and the “effect on rate of cell wall sorting (P2 precursor accumulation), in words” value (“effect on rate of cell wall sorting” below) is listed as “led to a steady accumulation of P2 precursor”. In addition, in the assay with cell wall synthesis, the “fold inhibition of cell wall synthesis” value came out at 9.5 fold and the “inhibition of cell wall synthesis (lysine/leucine ratio)” value came out at 20 fold.

In the case of lysostaphin, in [5], the “growth inhibition by lysostaphin” value was “inhibited growth of wild-type staphylococci”.

Consider methylmethane thiosulfonate, for which the “inhibition of LPETG peptide cleavage (peptide bond hydrolysis)” value against SrtADN [6] is given as “inhibited”.

Regarding moenomycin, in the assay on staphylococci, the “growth rate of staphylococci” value is given as “reduced the growth rate”. Moreover, in assay [4], the “[P2]/[M]” value is 0.24 ± 0.04 and the “effect on rate of cell wall sorting” value is reported as “similar, albeit weaker effect”. For the same compound, the “fold inhibition of cell wall synthesis” value with cell wall synthesis was found to be 1.6 fold.

With “p-hydroxymercuribenzoic acid [p-hydroxymercuribenzoic acid (pHMB)]”, the “inhibition of LPXTG peptide cleavage” value on SrtADN [2] is on record as “inhibited”. Also, the “interference with cleavage of sorting signals at the LPXTG motif / cell wall sorting (in words)” value in assay [1] is “displayed an inhibitory effect”.

On to penicillin, for which, in the assay with staphylococci, the “growth rate of staphylococci” value is recorded as “reduced the growth rate”. Also, in assay [4], the “[P2]/[M]” value amounted to 0.10 ± 0.01 and the “effect on rate of cell wall sorting” value was “did not alter the rate of cell wall sorting”. Further, the “fold inhibition of cell wall synthesis” value with cell wall synthesis worked out at 3.3 fold.
